Results taken from patent publication US11339136B2 (Novartis AG, priority 2016, dated 2022).

molecular target: T1, hNLRP3 (Homo sapiens, UniProt Q96P20); assay: IL-1β production in PMA-differentiated THP-1 cells stimulated with gramicidin; assay type: cell-based; conditions: gramicidin 5 μM, IL-1β in supernatant, Table 1
T1 construct: THP-1 cells were purchased from the American Type Culture Collection; host or cells: THP-1 cells, PMA-differentiated
Description: Bioassay: IL-1β Production in PMA-Differentiated THP-1 Cells Stimulated with Gramicidin. Procedure 1:
Cell culture—THP-1 cells were purchased from the American Type Culture Collection and sub-cultured according to instructions from the supplier. Prior to experiments, cells were cultured in RPMI 1640 containing 10% heat inactivated FBS, penicillin (100 units/ml) and streptomycin (100 μg/ml), and maintained in log phase prior to experimental setup. Prior to the experiment THP-1 were treated with PMA (Phorbol 12-myristate 13-acetate) (10 μg/ml) for 24 hours. The day of the experiment the media was removed and attaching cells were treated with trypsin for 2 minutes, cells were then collected, washed with PBS (phosphate buffer saline), spin down, resuspended in 2% heat inactivated FBS with RPMI at a concentration of 1×10^6 cells/ml, and 100 ul was plated in a 96 well plate. Cells were incubated with compounds for 1 hours and then stimulated with Gramicidin (5 μM) (Enzo) for 2 hours. Cell free supernatant was collected and the production of IL-1β was evaluated by ELISA. Compounds were dissolved in dimethyl sulfoxide (DMSO) and added to the culture medium to achieve desired concentration (e.g. 100, 30, 10, 3, 1, 0.3 or 0.1 μM). A vehicle only control was run concurrently with each experiment. Final DMSO concentration was 1%.
THP-1 cells were purchased from the American Type Culture Collection and sub-cultured according to instructions from the supplier. Prior to experiments, cells were cultured in complete RPMI 1640 (containing 10% heat inactivated FBS, penicillin (100 units/ml) and streptomycin (100 μg/ml)), and maintained in log phase prior to experimental setup. Prior to the experiment THP-1 were treated with PMA (Phorbol 12-myristate 13-acetate) (20 ng/ml) for 16-18 hours. On the day of the experiment the media was removed and adherent cells were detached with trypsin for 5 minutes. Cells were then harvested, washed with complete RPMI 1640, spun down, resuspended in RPMI 1640 (containing 2% heat inactivated FBS, penicillin (100 units/ml) and streptomycin (100 μg/ml). The cells were plated in a 384-well plate at a density of 50,000 cells/well (final assay volume 50 μl). Compounds were dissolved in dimethyl sulfoxide (DMSO) and added to the culture medium to achieve desired concentration (e.g. 100, 33, 11, 3.7, 1.2, 0.41, 0.14, 0.046, 0.015, 0.0051, 0.0017 μM). Cells were incubated with compounds for 1 hour and then stimulated with gramicidin (5 μM) (Enzo) for 2 hours. Cell free supernatant was collected and the production of IL-1β was evaluated by HTRF (cisbio). A vehicle only control was run concurrently with each experiment. Final DMSO concentration was 0.38%.

T1 sequence (Q96P20 whole entry): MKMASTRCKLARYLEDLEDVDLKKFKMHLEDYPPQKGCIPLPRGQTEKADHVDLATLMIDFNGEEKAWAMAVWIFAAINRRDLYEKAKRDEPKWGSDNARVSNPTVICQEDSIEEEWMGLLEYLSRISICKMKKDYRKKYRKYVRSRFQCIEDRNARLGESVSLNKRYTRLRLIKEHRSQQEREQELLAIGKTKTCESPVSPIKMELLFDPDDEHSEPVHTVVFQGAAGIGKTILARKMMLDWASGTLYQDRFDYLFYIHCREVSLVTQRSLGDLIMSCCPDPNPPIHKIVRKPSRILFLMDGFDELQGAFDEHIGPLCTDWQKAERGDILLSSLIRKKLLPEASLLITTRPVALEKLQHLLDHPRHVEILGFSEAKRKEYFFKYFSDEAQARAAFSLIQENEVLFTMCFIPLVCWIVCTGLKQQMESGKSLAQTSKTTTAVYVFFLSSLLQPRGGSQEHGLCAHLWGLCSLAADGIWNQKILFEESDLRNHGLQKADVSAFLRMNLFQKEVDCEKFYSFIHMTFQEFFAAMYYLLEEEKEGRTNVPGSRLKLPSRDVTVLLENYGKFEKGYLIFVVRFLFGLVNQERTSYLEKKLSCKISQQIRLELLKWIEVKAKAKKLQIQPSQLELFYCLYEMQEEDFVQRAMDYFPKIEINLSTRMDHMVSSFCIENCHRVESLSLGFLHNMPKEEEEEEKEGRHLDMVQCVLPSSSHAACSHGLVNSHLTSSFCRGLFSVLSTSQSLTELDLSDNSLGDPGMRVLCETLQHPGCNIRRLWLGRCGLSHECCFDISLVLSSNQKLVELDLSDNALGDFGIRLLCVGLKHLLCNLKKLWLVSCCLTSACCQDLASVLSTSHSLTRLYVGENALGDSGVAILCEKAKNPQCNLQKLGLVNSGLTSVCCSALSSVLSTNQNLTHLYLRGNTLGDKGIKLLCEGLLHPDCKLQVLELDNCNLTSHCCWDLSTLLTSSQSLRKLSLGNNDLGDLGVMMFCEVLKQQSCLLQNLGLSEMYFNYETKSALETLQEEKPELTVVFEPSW

IC50	SMILES
< 1 µM	CC(C)c1cc(F)cc(C(C)C)c1NC(=O)NS(=O)(=O)c1cc(C(C)(C)O)co1 [Compound 115, N-(4-fluoro-2,6-diisopropylphenyl-carbamoyl)-4-(2-hydroxypropan-2-yl)furan-2-sulfonamide]

same assay, conditions: gramicidin 5 μM, IL-1β in supernatant, Table 2

IC50	SMILES
< 1 µM	CC(C)c1cccc(C(C)C)c1NC(=O)NS(=O)(=O)c1ncc(C(C)(C)O)s1 [Compound 227, N-(2,6-diisopropylphenyl-carbamoyl)-5-(2-hydroxypropan-2-yl)thiazole-2-sulfonamide]
< 1 µM	O=C(Nc1c2c(c(Cl)c3c1CCC3)CCC2)NS(=O)(=O)c1cc(C2(O)CC2)cs1 [Compound 210, N-(8-chloro-1,2,3,5,6,7-hexahydros-indacen-4-ylcarbamoyl)-4-(1-hydroxycyclo-propyl)thiophene-2-sulfonamide]
15 to 35 µM	Cc1nc(S(=O)(=O)NC(=O)Nc2c(C(C)C)ccc(Cl)c2C(C)C)sc1C(C)(C)O [Compound 149, N-(3-chloro-2,6-diisopropylphenylcarbamoyl)-5-(2-hydroxypropan-2-yl)-4-methylthiazole-2-sulfonamide]
5 to 15 µM	CC(C)c1ccc(F)c(C(C)C)c1NC(=O)NS(=O)(=O)c1ncc(C2(O)CCCC2)s1 [Compound 168, N-(3-fluoro-2,6-diisopropylphenylcarbamoyl)-5-(1-hydroxycyclopentyl) thiazole-2-sulfonamide]
1 to 5 µM	N#Cc1c2c(c(NC(=O)NS(=O)(=O)c3ccc(C4(O)CC4)s3)c3c1CCC3)CCC2 [Compound 178, N-(8-cyano-1,2,3,5,6,7-hexahydros-indacen-4-ylcarbamoyl)-5-(1-hydroxycyclopropyl) thiophene-2-sulfonamide]
1 to 5 µM	CC(C)c1ccc(F)c(C(C)C)c1NC(=O)NS(=O)(=O)c1nc(C(C)(C)O)cs1 [Compound 145, N-(3-fluoro-2,6-diisopropylphenylcarbamoyl)-4-(2-hydroxypropan-2-yl)thiazole-2-sulfonamide]
1 to 5 µM	CC(C)(O)c1ncsc1S(=O)(=O)NC(=O)Nc1c2c(c(F)c3c1CCC3)CCC2 [Compound 268]
< 1 µM	CC(C)(O)c1ccc(S(=O)(=O)NC(=O)Nc2c3c(c(Cl)c4c2CCC4)CCC3)s1 [Compound 189, N-(8-chloro-1,2,3,5,6,7-hexahydros-indacen-4-ylcarbamoyl)-5-(2-hydroxypropan-2-yl) thiophene-2-sulfonamide]
< 1 µM	CC(C)c1cc(F)cc(C(C)C)c1NC(=O)NS(=O)(=O)c1cc(C2(O)CC2)cs1 [Compound 204, N-(4-fluoro-2,6-diisopropylphenyl-carbamoyl)-4-(1-hydroxycyclo-propyl)thiophene-2-sulfonamide]
< 1 µM	CC(C)c1ccc(F)c(C(C)C)c1NC(=O)NS(=O)(=O)c1cc(C(C)(C)O)cs1 [Compound 228, N-(3-fluoro-2,6-diisopropylphenyl-carbamoyl)-4-(2-hydroxypropan-2-yl)thiophene-2-sulfonamide]
5 to 15 µM	CC(C)c1ccc(C#N)c(C(C)C)c1NC(=O)NS(=O)(=O)c1cc(C(C)(C)O)c(Cl)s1 [Compound 265, 5-chloro-N-(3-cyano-2,6-diisopropylphenylcarbamoyl)-4-(2-hydroxypropan-2-yl) thiophene-2-sulfonamide]
< 1 µM	CC(C)c1cc(F)cc(C(C)C)c1NC(=O)NS(=O)(=O)c1ccc(C(C)(C)O)s1 [Compound 257]
< 1 µM	N#Cc1c2c(c(NC(=O)NS(=O)(=O)c3cc(C4(O)CC4)co3)c3c1CCC3)CCC2 [Compound 206, N-(8-cyano-1,2,3,5,6,7-hexahydros-indacen-4-ylcarbamoyl)-4-(1-hydroxycyclopropyl) furan-2-sulfonamide]
< 1 µM	CC(C)(O)c1ccc(S(=O)(=O)NC(=O)Nc2c3c(c(F)c4c2CCC4)CCC3)s1 [Compound 176, N-(8-fluoro-1,2,3,5,6,7-hexahydros-indacen-4-ylcarbamoyl)-5-(2-hydroxypropan-2-yl) thiophene-2-sulfonamide]
1 to 5 µM	CC(C)c1cc(C#N)cc(C(C)C)c1NC(=O)NS(=O)(=O)c1cnc(C(C)(C)O)s1 [Compound 267]
< 1 µM	Cc1sc(S(=O)(=O)NC(=O)Nc2c(C(C)C)cc(F)cc2C(C)C)cc1C(C)(C)O [Compound 157, N-(4-fluoro-2,6-diisopropylphenyl-carbamoyl)-4-(2-hydroxypropan-2-yl)-5-methylthiophene-2-sulfonamide]

IC50	SMILES
1 to 5 µM	CCc1cccc(CC)c1NC(=O)NS(=O)(=O)c1ncc(C(C)(C)O)s1 [Compound 172, N-(2,6-diethylphenylcarbamoyl)-5-(2-hydroxypropan-2-yl)thiazole-2-sulfonamide]
15 to 35 µM	CCc1cccc(CC)c1NC(=O)NS(=O)(=O)c1cc(C(C)(C)O)cs1 [Compound 173, N-(2,6-diethylphenylcarbamoyl)-4-(2-hydroxypropan-2-yl)thiophene-2-sulfonamide]
5 to 15 µM	CC(C)(O)c1ncsc1S(=O)(=O)NC(=O)Nc1c2c(c(Cl)c3c1CCC3)CCC2 [Compound 273]
1 to 5 µM	CC(C)c1ccc(Cl)c(C(C)C)c1NC(=O)NS(=O)(=O)c1nc(C(C)(C)O)cs1 [Compound 144, N-(3-chloro-2,6-diisopropylphenylcarbamoyl)-4-(2-hydroxypropan-2-yl) thiazole-2-sulfonamide]
< 1 µM	CC(C)c1cc(F)cc(C(C)C)c1NC(=O)NS(=O)(=O)c1cc(C2(O)CC2)co1 [Compound 205, N-(4-fluoro-2,6-diisopropylphenyl-carbamoyl)-4-(1-hydroxycyclo-propyl)furan-2-sulfonamide]
< 1 µM	CC(C)c1ccc(F)c(C(C)C)c1NC(=O)NS(=O)(=O)c1ncc(C(C)(C)O)s1 [Compound 213, N-(3-fluoro-2,6-diisopropylphenyl-carbamoyl)-5-(2-hydroxypropan-2-yl)thiazole-2-sulfonamide]
< 1 µM	O=C(Nc1c2c(cc3c1CCC3)CCC2)NS(=O)(=O)c1cc(C2(O)CC2)cs1 [Compound 216]
< 1 µM	CC(C)c1cc(C#N)cc(C(C)C)c1NC(=O)NS(=O)(=O)c1cc(C2(O)CC2)co1 [Compound 235, N-(4-cyano-2,6-diisopropylphenyl-carbamoyl)-4-(1-hydroxycyclo-propyl)furan-2-sulfonamide]
< 1 µM	CC(C)(O)c1cc(S(=O)(=O)NC(=O)Nc2c3c(cc4c2CCC4)CCC3)oc1Cl [Compound 255, 5-chloro-N-(1,2,3,5,6,7-hexahydros-indacen-4-ylcarbamoyl)-4-(2-hydroxypropan-2-yl)furan-2-sulfonamide]
1 to 5 µM	CC(C)c1ccc(C#N)c(C(C)C)c1NC(=O)NS(=O)(=O)c1cc(C(C)(C)O)cs1 [Compound 262, N-(3-cyano-2,6-diisopropylphenylcarbamoyl)-4-(2-hydroxypropan-2-yl) thiophene-2-sulfonamide]
< 1 µM	CC(C)(O)c1csc(S(=O)(=O)NC(=O)Nc2c3c(c(Cl)c4c2CCC4)CCC3)c1 [Compound 232, N-(8-chloro-1,2,3,5,6,7-hexahydros-indacen-4-ylcarbamoyl)-4-(2-hydroxypropan-2-yl)thiophene-2-sulfonamide]
1 to 5 µM	CCc1cc(C#N)cc(CC)c1NC(=O)NS(=O)(=O)c1cc(C(C)(C)O)cs1 [Compound 159, N-(4-cyano-2,6-diethylphenylcarbamoyl)-4-(2-hydroxypropan-2-yl)thiophene-2-sulfonamide]
< 1 µM	CC(C)c1cc(Cl)cc(C(C)C)c1NC(=O)NS(=O)(=O)c1ccc(C2(O)CC2)s1 [Compound 196, N-(4-chloro-2,6-diisopropylphenylcarbamoyl)-5-(1-hydroxycyclopropyl) thiophene-2-sulfonamide]
< 1 µM	Cc1nc(S(=O)(=O)NC(=O)Nc2c(C(C)C)ccc(F)c2C(C)C)sc1C(C)(C)O [Compound 150, N-(3-fluoro-2,6-diisopropylphenylcarbamoyl)-5-(2-hydroxypropan-2-yl)-4-methylthiazole-2-sulfonamide]
< 1 µM	O=C(Nc1c2c(cc3c1CCC3)CCC2)NS(=O)(=O)c1cc(C2(O)CC2)co1 [Compound 247, 1-(1,2,3,5,6,7-hexahydro-s-indacen-4-yl)-3-[4-(1-hydroxycyclopropyl)furan-2-sulfonyl]urea]
< 1 µM	CC(C)c1cc(Cl)cc(C(C)C)c1NC(=O)NS(=O)(=O)c1cc(C(C)(C)O)c(Cl)s1 [Compound 254, 5-chloro-N-(4-chloro-2,6-diisopropylphenyl-carbamoyl)-4-(2-hydroxypropan-2-yl)thiophene-2-sulfonamide]
